Values joined by “and” are separate entries in the source; they are usually repeats but may differ in a detail not shown here. Equal entries are not always repeated. “Also recorded” adds a separate entry of the source. Where a SMILES comes first, the peptide text is derived from it. Bridges are numbered along the chain shown (N, C = ends). [ ]: non-standard residue; d: D form. Ala(cPent) = N[C@@H](CC1CCCC1)C(=O)O; AllylGly = C=CC[C@H](N)C(=O)O
Tests used:
Sprague-Dawley rats [1] = experiment: Tail-flick test (acute thermal pain), intrathecal injection; type: in vivo, rat; conditions: for ED50, tail-flick test: from % MPE at 10 min post-injection, rat; for tail-flick latency time compared to saline injection: i.t. 10 to 150 μg/kg (compound 34) or 3 to 61 nmol/kg (compound 67); for % MPE: 10 min post-injection
Description: Rats were housed two per cage on Aspen shavings in a quiet room and kept on a 12 h light/dark cycle and allowed ad libitum access to food and water. The experimental procedures in this study were approved by the Animal Care Committee of Université de Sherbrooke and were in accordance with policies and directives of the Canadian Council on Animal Care.
Tail-flick test: The tail flick test was used as outcome measures heat-induced pain in animals and as indicators of a compound's analgesic efficacy.
Acute pain was assessed using the Tail flick test (Tail Flick Analgesia meterV2.00, Colombus Instruments, Columbus, Ohio, USA). Tail flick test measures sensitivity to a high-intensity light beam focused on the rat tail. The tail flick apparatus was set at a light intensity of 6 and a cutoff of 10 seconds. The latency to flick the tail out of the path of the light beam corresponds to the measure of pain sensitivity or analgesia.
Before testing, animals were individually acclimatized to manipulations and behavioral apparatus 5 min/day for three consecutive days. On the test day, latencies baseline measures were taken before drug injection to provide a mean baseline. The compounds were diluted in 0.9% saline at the desired dose. The effects of the compound or saline on thermal nociception were assessed every 10 min for up to 60 min following i.t. administration.
Moreover, tail flick latencies were converted into the percent maximal possible effect (% MPE) at the time of maximal peak of analgesia. % MPE were calculated according to the following formula: % MPE=[(Test latency)−(Saline latency)]/[(Cutoff)−(Saline latency)]×100. Data are expressed as mean±SEM of 5-8 animals for each dose.
Then, ED50 values were determined using the dose-response stimulation log(agonist) vs response (four parameters).
(§1) Data are expressed as mean±standard errors of the mean (SEM). All graphs and statistical analysis were performed using GraphPad Prism™ 7 (GraphPad software, La Jolla, CA, USA). […] A two-way ANOVA followed by Tukey's multiple comparisons test was used to determine the significant differences in changes in body temperature between different concentrations of compounds and saline (FIG. 9). The % MPE for the tail-flick test and the areas under the curve for the formalin test were analyzed using a one-way ANOVA followed by a Dunnett's multiple comparisons test to compare different concentrations of compounds and saline treatment (FIGS. 2B, 4B, 7A-B and 8B-D). […] Nonlinear regression using three parameters was performed for % of ileum relaxation and IC50 value was obtained from the resulting dose-response curve (FIG. 11). A difference in response was considered significant with p-values *p<0.05, **p<0.01, ***p<0.001 and **p<0.0001.

Sprague-Dawley rats [2] = experiment: Formalin test (tonic pain model), intrathecal injection; type: in vivo, rat
Description: Experiments were performed with adults male Sprague-Dawley rats, weighing 225-300 g (Charles River laboratories, St Constant, Canada). Rats were housed two per cage on Aspen shavings in a quiet room and kept on a 12 h light/dark cycle and allowed ad libitum access to food and water. The experimental procedures in this study were approved by the Animal Care Committee of Université de Sherbrooke and were in accordance with policies and directives of the Canadian Council on Animal Care.
Rats were lightly anesthetized with isoflurane/oxygen (Baxter corporation, Mississauga, ON, Canada; 2 L/min) flow and injected intrathecally at the L5-L6 intervertebral space with concentrations ranging from 10 to 150 μg/kg of compound 34, 30 μg/kg of PD149163 or 61 nmol/kg of compounds 60, 67, 91 and 116 diluted in 0.9% saline or 0.9% saline alone.
Formalin test: The analgesic effect of compound 34 was assessed using the formalin test as a model of persistent pain. Before testing, animals were acclimatized to manipulations and to plexiglass chambers 30 min/day for three consecutive days. On test day, 5 minutes after intrathecal injection of compounds at increasing doses ranging from 30 to 150 μg/kg (FIGS. 7A-B) or 3 to 60 μg/kg (FIGS. 8A-D), the rats received a 50 μl of diluted 1.85% formaldehyde (i.e. 5% formalin; Bioshop, Burlington, Ontario) into the plantar surface of the right hind paw. […] The intraplantar injection of formalin produced the biphasic nociceptive response typical of this tonic pain model (Tjolsen et al., 1992). […] Nociceptive behavior was assessed using a weighted score as described previously (Dubuisson and Dennis 1977; Codere, 1993). […] The weighted average pain intensity score ranging from 0 to 3 was then calculated by multiplying the time spent in each category by the category weight, summing these products, and dividing by the total time in a given time interval. The pain score was thus calculated from the following formula (1T1+2T2+3T3)/180 where T1, T2, and T3 are the durations (in seconds) spent in behavioral categories 1, 2, or 3, respectively, during each 180 second block. The Area Under the Curve (AUC) was calculated during all the duration of the test (0-60 min). […]
Data are expressed as mean±standard errors of the mean (SEM). […] The % MPE for the tail-flick test and the areas under the curve for the formalin test were analyzed using a one-way ANOVA followed by a Dunnett's multiple comparisons test to compare different concentrations of compounds and saline treatment (FIGS. 2B, 4B, 7A-B and 8B-D). […]

[3] = Body temperature (hypothermia) after intrathecal injection; type: in vivo, rat; conditions: vs saline
Description: Body temperature was measured using a thermistor probe inserted into the rectum of the rats. Animals were individually acclimatized to manipulations and thermistor probe 5 min/day for three consecutive days. […] Changes in body temperature (Δ body temperature) were determined from baseline for each time and each animal. Data represents the mean±SEM of 5-6 rats for each condition.
as §1

[4] = Blood pressure measurements after intravenous injection
Description: Mean, systolic and diastolic arterial blood pressure and a heart rate were measured through a catheter (PE 50 filled with heparinized saline) inserted in the right carotid artery and connected to a Micro-Med transducer (model TDX-300, USA) linked to a blood pressure Micro-Med analyzer (model BPA-100c). […] Blood pressure was recorded each second for up to 1000 seconds following intravenous injection. […] Data represents the mean±SEM of 4-5 rats for each condition.

| SMILES | tail-flick latency at the lowest dose (Sprague-Dawley rats [1]; 10 μg/kg i.t. (data not shown)) | ED50, tail-flick test (Sprague-Dawley rats [1]; i.t.) | tail-flick latency time compared to saline injection (Sprague-Dawley rats [1]) | % MPE (Sprague-Dawley rats [1]; tail-flick, two higher doses i.t.) | dose at which analgesic effect / MPE reached a plateau (Sprague-Dawley rats [1]; tail-flick, i.t.) | time spent in lifting (Sprague-Dawley rats [2]; acute phase, from 60 μg/kg i.t.) | time spent in lifting (Sprague-Dawley rats [2]; inflammatory phase, from 90 μg/kg i.t.) | Hypothermia (i.t.) ([3]; 150 μg/kg i.t.) | Hypotension (i.v.) ([4]; 0.01, 0.1, 1 mg/kg i.v.) | latency of the tail-flick reflex compared to baseline (Sprague-Dawley rats [1]; 61 nmol/kg i.t.) | tail-flick latency at low doses (Sprague-Dawley rats [1]; doses inferior to 3 nmol/kg i.t. (data not shown)) | antinociceptive effect compared with the other tested compounds (Sprague-Dawley rats [1]; equimolar doses (61 nmol/kg i.t.)) | MPE plateau at the tested doses (Sprague-Dawley rats [1]; tail-flick, 3 to 61 nmol/kg i.t.) | % MPE (Sprague-Dawley rats [1]; tail-flick, highest dose i.t.) | ED50, formalin test (Sprague-Dawley rats [2]; AUC of pain score, acute and inflammatory phases combined, i.t.) | pain score (Sprague-Dawley rats [2]; all tested doses (from 10 nmol/kg) i.t.) | Hypothermia (i.t.) ([3]; 209 nmol/kg i.t.) | Hypotension (i.v.) ([4]; 1 mg/kg i.v.) |
| --- | --- | --- | --- | --- | --- | --- | --- | --- | --- | --- | --- | --- | --- | --- | --- | --- | --- | --- |
| CC(C)C[C@H](NC(=O)[C@H](Cc1ccc(O)cc1)NC(=O)[C@@H]1CC=CC[C@H](N)C(=O)N[C@@H](CCCCN)C(=O)N[C@@H](CCCCN)C(=O)N1)C(=O)O [compound 34, c[G(All)KKG(All)]YL] (H-[AllylGly]KK[AllylGly]YL-OH; staple 1-4) | no apparent increase in latency | 48.52 μg/kg and 61 nmol/kg | significantly increased | at least 98% | around 90 μg/kg | significantly decreased | significantly decreased | no significant variation in body temperature; also recorded: No hypothermia | no significant hypotension |  |  |  |  |  |  |  |  |  |
| NCCCC[C@@H]1NC(=O)[C@H](CCCCN)NC(=O)[C@@H](N)CC=CC[C@@H](C(=O)N[C@@H](Cc2ccc(O)cc2)C(=O)N[C@@H](CC2CCCC2)C(=O)O)NC1=O [compound 67, c[G(All)KKG(All)]YA(cyclopentyl)] (H-[AllylGly]KK[AllylGly]Y[Ala(cPent)]-OH; staple 1-4) |  | 8.14 nmol/kg | significantly increased |  |  |  |  |  |  | sustainably increased latency | no apparent increase in latency | highest antinociceptive effect | did not reach a plateau | at least 91% | 30 nmol/kg | significantly decreased | no significant variation in body temperature; also recorded: No hypothermia | no significant hypotension |

Source: patent US12358948B2, “Neurotensinergic agonists and methods of using same preventing or treating pain” (priority 2019, dated 2025)
